Data published in patent publication US8034768B2, “Composition and method for the treatment of diseases affected by histone deacetylase inhibitors” (Board of Regents, The University of Texas System, priority 2007, dated 2011).
Starred links: 1 amine or outer side, 2 acyl side, 3 side chain; linkers in the order of their positions; H or OH if unused. Positions of bridges follow the written chain, without caps; N, C: chain ends. Non-standard residues stand in square brackets, D forms with d. Residues, ends and D or L forms follow the SMILES beside them. 1Nal = N[C@@H](Cc1cccc2ccccc12)C(=O)O; 2Nal = N[C@@H](Cc1ccc2ccccc2c1)C(=O)O; Cysteamide = C(CS[*:3])N[*:1]

Legend:
prostate cancer cells = type: cell-based, human
Description: (§1) To evaluate anti-tumoral activity of the modified FK228 analogues, human transitional carcinoma cell lines T24, TCCSUP, 253J and human prostate cancer cell lines PC-3, LNCaP, Du-145 were cultured in T medium (Invitrogen) supplemented with 5% fetal bovine serum and 1% penicillin-streptomycin. 2×10^3 Cells in 50 μL of medium were plated into each well of a 96-well plate one day before adding compound. Each compound was diluted with DMSO to two folds of the concentrations, then 50 μL of the compound-containing medium was added into cells. Each treatment was in triplicate. Three days later, cell proliferation was measured with a cell proliferation kit (Roche). Briefly, 10 μL of MTT (3-[4,5-dimethylthiazol-2-yl]-2,5-diphenyl tetrazolium bromide) was added into each well for 4 hours, then 100 μL of the solubilization solution was added and cells were incubated for overnight. The spectrophotometrical absorbance of the samples was measured with a SpectraMax M5 plate reader (Molecular Devices) at 565 nm. The data were presented as percentage inhibition using non-treated cells as control.
FIGS. 9-11 are graphs showing dose-dependent growth inhibition of cancer cells (prostate and bladder cancers) by modified FK228 analogues. […] FIG. 10 includes the general structure in FIG. 10A including R groups. The R groups are defined in FIG. 10B and growth inhibition for the specific composition depicted in FIG. 10B are shown in FIG. 10C. […] Similarly, FIG. 11 includes the general structure in FIG. 1A including R groups. The R groups are defined in FIG. 1B and growth inhibition for the specific composition depicted in FIG. 10B are shown in FIG. 1C. […] FIG. 11A is a structure of the modified FK228 analogues and the side chain functional groups of the structure in FIG. 11A is shown in FIG. 11B. FIG. 11C is a graph of the activity as a function of side chain seen in FIG. 11B.

[1] = tested on: 3 prostate and 3 bladder cancer cells; test: MTT cell proliferation assay on a variety of cancer cells (FIG. 10); type: cell-based, human
Description: as §1
FIGS. 9-11 are graphs showing dose-dependent growth inhibition of cancer cells (prostate and bladder cancers) by modified FK228 analogues. […] FIG. 10 includes the general structure in FIG. 10A including R groups. […]

K562 cells = test: Cell viability of K562 cells treated for γ-globin expression study; type: cell-based; conditions: about 48 hours, about 0.3 μM
Description: The synthesized modified FK228 analogues of the present invention were assessed to examine their capability to induce γ-globin expression. K562 cells were treated with the synthesized modified FK228 analogues at various concentrations (e.g., between about 0.01 nM and about 10 μM) for about 48 hours and expression of γ-globin was determined by real-time PCR as well as checking cell viability.

Row | Structure (SMILES) | GI50 (prostate cancer cells) | cytotoxicity on a variety of cancer cells [1] | cell viability (K562 cells)
1 | CC(C)[C@H]1NC(=O)C[C@@H]2NC(=O)[C@H](Cc3ccccc3)NC(=O)[C@H](Cc3ccccc3)NC(=O)[C@@H](CSSCCNC2=O)NC1=O [JMA26] ([dV][dC]FFD-Cysteamide; disulfide 2-C; lactam N-5) | 0.46 µM | high cytotoxicity | 
2 | CC(C)[C@H]1NC(=O)C[C@@H]2NC(=O)[C@H](Cc3ccc4ccccc4c3)NC(=O)[C@H](Cc3ccc4ccccc4c3)NC(=O)[C@@H](CSSCCNC2=O)NC1=O [JMA33] ([dV][dC][2Nal][2Nal]D-Cysteamide; disulfide 2-C; lactam N-5) | 0.033 µM |  | 
3 | CC(C)[C@H]1NC(=O)C[C@@H]2NC(=O)[C@H](Cc3ccccc3)NC(=O)[C@H](Cc3ccc4ccccc4c3)NC(=O)[C@@H](CSSCCNC2=O)NC1=O [JMA46] ([dV][dC][2Nal]FD-Cysteamide; disulfide 2-C; lactam N-5) | 0.17 µM |  | 
4 | CC(C)[C@H]1NC(=O)C[C@@H]2NC(=O)[C@H](Cc3cccc4ccccc34)NC(=O)[C@H](Cc3cccc4ccccc34)NC(=O)[C@@H](CSSCCNC2=O)NC1=O [JMA47] ([dV][dC][1Nal][1Nal]D-Cysteamide; disulfide 2-C; lactam N-5) | 0.047 µM |  | 
5 | CC(/C=C/C(=O)NO)=C\[C@@H](C)C(=O)c1ccc(N(C)C)cc1 [TSA, Trichostatin A] |  |  | 30-40%
